Experimental data: ChEMBL document CHEMBL1131405, “Novel bisphosphonate inhibitors of phosphoglycerate kinase” (Bioorg Med Chem Lett, 1998)

Tests used:
[1] = Dissociation constant (pKa4); type: physicochemical; conditions: read-out: pKa4
[2] = Dissociation constant (pKa3); type: physicochemical; conditions: read-out: pKa3

Row | Compound | pKa [1] | pKa [2]
1 | O=P(O)(O)Cc1cccc(CP(=O)(O)O)c1 | 7.71 | 7.11
2 | O=P(O)(O)C(F)c1cccc(C(F)P(=O)(O)O)n1 (stereo unspecified) | 5.3 | 5.18
3 | O=P(O)(O)Cc1cccc(CP(=O)(O)O)n1 | 8.49 | 6.7
4 | O=P(O)(O)Cc1cccc(C(O)P(=O)(O)O)c1 (stereo unspecified) | 7.29 | 6.98
5 | Cc1cc(C)c(CP(=O)(O)O)cc1CP(=O)(O)O | 7.78 | 7.24
6 | O=P(O)(O)C(F)(F)c1cccc(C(F)(F)P(=O)(O)O)n1 | 5.3 | 5.18
7 | O=P(O)(O)Cc1ccccc1CP(=O)(O)O | 8.53 | 7.1
8 | O=P(O)(O)Cc1cccc(P(=O)(O)O)c1 | 7.61 | 6.47
9 | Cc1cc(C)c(CP(=O)(O)O)c(C)c1CP(=O)(O)O | 8.16 | 7.4
10 | O=P(O)(O)C(F)c1ccc(C(F)P(=O)(O)O)cc1 (stereo unspecified) | 6.37 | 6.02
11 | O=P(O)(O)c1cccc(C(F)P(=O)(O)O)c1 (stereo unspecified) | 6.99 | 5.8
12 | O=P(O)(O)c1cccc(C(O)P(=O)(O)O)c1 (stereo unspecified) | 7.46 | 6.55
13 | Cc1cc(C)c(C(F)(F)P(=O)(O)O)cc1C(F)(F)P(=O)(O)O | 5.92 | 5.33
14 | O=P(O)(O)C(O)c1cccc(C(O)P(=O)(O)O)c1 (stereo unspecified) | 7.23 | 6.78
15 | O=P(O)(O)Cc1ccc(C(F)P(=O)(O)O)cc1 (stereo unspecified) | 7.72 | 6.3
16 | O=P(O)(O)Cc1ccc(C(F)(F)P(=O)(O)O)cc1 | 6.63 | 5.27
17 | O=P(O)(O)c1cccc(C(F)(F)P(=O)(O)O)c1 | 6.9 | 5.61
18 | C=C(CP(=O)(O)O)CP(=O)(O)O | 7.45 | 6.45
19 | O=P(O)(O)C(F)c1cccc(C(F)P(=O)(O)O)c1 (stereo unspecified) | 6.37 | 6.01
20 | O=P(O)(O)C(F)(F)c1ccc(C(F)(F)P(=O)(O)O)cc1 | 5.6 | 4.82
21 | O=P(O)(O)C(O)c1cccc(C(O)P(=O)(O)O)n1 (stereo unspecified) | 7.58 | 6.57
22 | O=P(O)(O)Cc1ccc(CP(=O)(O)O)cc1 | 7.49 | 7.03
23 | O=P(O)(O)Cc1cccc(C(F)(F)P(=O)(O)O)c1 | 5.84 | 5.04
